Entries after “also recorded” stand apart in the source; their conditions may differ.
How the values were obtained:
[1] = system: NLRP6 inflammasome; assay: Colon explants cultured with metabolites (IL-18 ELISA, caspase-1 immunoblot, gene expression); format: cell-based, mouse; conditions: for IL-18 protein levels: Nlrp3-/- explants; for IL-18 suppression with increasing doses: colonic explant-based validation screen; for IL-18 transcript (mRNA) levels / caspase-1 cleavage / processing: colonic explants; for caspase-1 cleavage / processing: 12 hours incubation, immunoblot p45/p20; for suppression of IL-18 secretion, metabolite screen: cultured WT colon explants
Experimental: Colons were excised and washed thoroughly with PBS, homogenized in RIPA buffer containing protease inhibitors, incubated for 20 min in 4° C. and centrifuged for 20 min, 14,000 rpm at 4° C. Samples were separated on 15% acrylamide gels and transferred onto nitrocellulose membranes. Western blot analysis was performed using anti-caspase 1 p20 polyclonal antibody (Adipogen, AG-20B-0042B-C100) and Goat anti mouse antibody (Jackson ImmunoResearch, 115-035-003). Band density was calculated using ImageJ software. Colon pieces, 0.5 cm long, from the proximal colon were removed, rinsed with PBS, and weighed. The tissue explants were cultured for 24 hrs in DMEM medium containing 10% FBS, L-glutamine, penicillin, and streptomycin at 37° C. Culture medium was collected, centrifuged and the resulting supernatant stored in aliquots at -20° C. Concentrations of IL-18 in the serum or culture supernatants were measured using ELISA. […] Samples were then washed and plates were incubated with anti-mouse IL-18-biotin antibody ([…]-6 MBL) for 1 hour and HRP-Avidin (BioLegend) for 1 hour before quantification. […] For AMP induction in-vitro, 3 μg IL-18 were added to colon explants for 7 hours, then the explants were maintained in RNAlater and RNA was extracted. Tissues were preserved in RNAlater solution (Ambion) and subsequently homogenized in Tri Reagent (Fox et al.). RNA was purified according to the manufacturer's instructions. Two microgram of total RNA was used to generate cDNA (HighCapacity cDNA Reverse Transcription kit; Applied Biosystems). RealTime-PCR was performed using gene-specific primer/probe sets (Applied Biosystems) and Kapa Probe Fast qPCR kit (Kapa Biosystems) on a Viia7 instrument (Applied Biosystems). PCR conditions were 95° C. for 20 s, followed by 40 cycles of 95° C. for 3 s and 60° C. for 30 s. Data were analyzed using the deltaCt method with hprt serving as the reference housekeeping gene.

[2] = system: DSS colitis; assay: DSS colitis; format: in vivo, mouse
Experimental: For IL-18 rescue experiments, recombinant IL-18 (MBL, Cat#B004-2) was injected intraperitoneally at a concentration of 1 μg per mouse for 5 days, and not injected for 2 days prior to DSS treatment. IL-18 injection to Swiss Webster germ-free mice and Nlrp6^−/− mice was performed twice a day for 3 days, while the mice were kept sterile using a cage-autonomous system (Hecht et al., 2014).
Mice were treated with 1.5% (w/v) DSS (M.W.=36,000-50,000 Da; MP Biomedicals) in their drinking water for 7 days followed by regular access to water. The animals were weighed daily and monitored for signs of distress as well as rectal bleeding.
For DSS rescue experiments, mice were receiving taurine in the drinking water prior to DSS treatment in a concentration of 100 mg/ml for 14 days.
Colonoscopy was performed using a high-resolution mouse video endoscopic system (Carl Storz, Tuttlingen, Germany). The severity of colitis was blindly scored using MEICS (Murine Endoscopic Index of Colitis Severity), which is based on five parameters: granularity of mucosal surface; vascular pattern; translucency of the colon mucosa; visible fibrin; and stool consistency (Becker et al., 2006).
On the day of the assay, 4 kDa fluorescein isothiocyanate (FITC)-dextran was dissolved in phosphate buffered saline (PBS) to a concentration of 80 mg ml^−1. Mice were fasted for 4 hours prior to gavage with 150 μl dextran. Mice were anesthetized 3 hours following gavage and blood was collected, centrifuged at 1,000×g for 12 min at 4° C. Serum was collected and fluorescence was quantified at an excitation wavelength of 485 nm and 535 nm emission wavelength.
DNA was extracted from liver samples (using MoBio PowerSoil kit). DNA concentration was calculated using a standard curve of known DNA concentrations from E. coli K12. 16S qPCR using primers identifying different regions of the V6 16S gene was performed using Kappa SYBR fast mix.
Absolute number of bacteria in the samples was then approximated as DNA amount in a sample/DNA molecule mass of bacteria.

[3] = system: colon explants; format: cell-based, mouse
Experimental: (F) FACS quantification of propidium iodide positive cells obtained from colon explants incubated for 10 hrs with PBS or taurine.
(F) FACS quantification of propidium iodide positive cells obtained from colon explants incubated for 10 hrs with either PBS, spermine or histamine.

[4] = WT mice, DSS colitis, taurine in drinking water
[5] = WT mice, taurine in drinking water for two weeks, then DSS colitis

## NCCc1c[nH]cn1 [histamine]
[1]
  IL-18 protein levels: decreased
  IL-18 suppression with increasing doses: concentration-dependent IL-18 suppressive functions
  IL-18 transcript (mRNA) levels: no change
  caspase-1 cleavage / processing: reduced
  suppression of IL-18 secretion, metabolite screen: strongest suppressors
[2]; WT mice concomitantly treated with antibiotics
  exacerbation of DSS colitis: prevented
[2]; WT mice, histamine treatment
  DSS colitis: exacerbated
[3]
  cell death: no change

## NCCCNCCCCNCCCN [spermine]
[1]
  IL-18 protein levels: decreased
  IL-18 suppression with increasing doses: concentration-dependent IL-18 suppressive functions
  IL-18 transcript (mRNA) levels: no change
  caspase-1 cleavage / processing: reduced
  suppression of IL-18 secretion, metabolite screen: strongest suppressors
[3]
  cell death: no change

## NCCS(=O)(=O)O [taurine]
[1]; WT explants cultured for 8 hours
  AMPs (Ang4) expression: induced upregulation
[1]; WT, Nlrp6-/- and Nlrp3-/- colon explants
  dependence of IL-18 induction on NLRP6 / NLRP3: dependent on NLRP6, but not on NLRP3
[1]; colon explants cultured with histamine and spermine, with addition of taurine
  inflammasome suppression (IL-18 production) by spermine or histamine upon concomitant taurine: rescued
[1]
  caspase-1 cleavage / processing: enhanced
[1]; sterile WT colonic explants, metabolite screen and increasing doses
  IL-18 induction: strongest dose-dependent inductive activity
[2]; GF WT mice
  beneficial effects on DSS colitis: failed to have beneficial effects
[2]; WT mice treated with broad-spectrum antibiotics
  beneficial effects on DSS colitis: failed to have beneficial effects
[2]; [4]
  hepatic bacterial load: decreased
  systemic FITC-dextran influx: reduced
[2]; WT mice, DSS colitis, taurine in drinking water, ZO-1 staining
  epithelial tight junction integrity: sustained
[2]; WT mice, taurine administration stopped before induction of DSS colitis
  beneficial effects on DSS colitis: beneficial effects were also observed
[2]; [5]
  colitis severity: ameliorated; also recorded: reduced
  weight loss: improved
[2]; WT mice, taurine in drinking water, DSS
  survival: enhanced
[2]; mice lacking either ASC or NLRP6
  beneficial effects on DSS colitis: failed to have beneficial effects
